From ChEMBL document CHEMBL1130932, “Hepatoprotective and nitric oxide production inhibitory activities of coumarin and polyacetylene constituents from the roots of Angelica furcijuga” (Bioorg Med Chem Lett, 1998)

Key:
Type in all cases: functional
[1] = species on record: Rattus norvegicus; assay: Inhibitory activity against D-GalN-induced cytotoxicity in rat hepatocytes at 100 uM; details: Hepatocyte
[2] = species on record: Rattus norvegicus; assay: Inhibitory activity against D-GalN-induced cytotoxicity in rat hepatocytes; details: Hepatocyte
[3] = species on record: Mus musculus; assay: Inhibitory activity against LPS-induced NO production in mouse peritoneal macrophages was evaluated
[4] = species on record: Mus musculus; assay: Inhibitory activity from the roots of Angelica furcijuga on LPS-induced NO production in mouse peritoneal macrophages was evaluated at 100 uM
[5] = species on record: Mus musculus; assay: Inhibitory activity against LPS-induced NO production in mouse peritoneal macrophages was evaluated at 100 uM

SMILES	inhibition at 100 µM [1] [%]	IC50 [2] [µM]	IC50 [3] [µM]	Inhibition [3] [%]	inhibition at 100 µM [4] [%]	inhibition at 100 µM [5] [%]
COc1cc(C(O)C(CO)Oc2ccc(/C=C/CO[C@@H]3O[C@H](CO)[C@@H](O)[C@H](O)[C@H]3O)cc2OC)ccc1O (stereo partly drawn)	-0.2	> 100	> 100	-26	–	–
C/C=C(\C)C(=O)O[C@@H]1[C@H](OC(=O)C(C)CC)c2c(ccc3ccc(=O)oc23)OC1(C)C (stereo partly drawn)	-0.5	> 100	5.1	–	–	–
CC(C)(O)C1Cc2cc(CCC(=O)O)c(O[C@@H]3O[C@H](CO)[C@@H](O)[C@H](O)[C@H]3O)cc2O1 (stereo partly drawn)	0.6	> 100	> 100	–	32	–
CC(C)(O)[C@H](O)Cc1cc2ccc(=O)oc2cc1O[C@@H]1O[C@H](CO)[C@@H](O)[C@H](O)[C@H]1O	5.8	> 100	> 100	–	49	–
COc1c2ccoc2cc2oc(=O)ccc12 [BERGAPTEN]	23	> 100	> 100	–	49	–
C=C[C@@H](O)C#CC#C[C@@H](O)/C=C\CCCCCCC [FALCARINDIOL]	-33	> 100	4.4	–	–	–
CCC(C)C(=O)O[C@@H]1c2c(ccc3ccc(=O)oc23)OC(C)(C)[C@@H]1OC(C)=O (stereo partly drawn)	-2.5	> 100	8.2	–	–	–
CC1(C)Oc2ccc3ccc(=O)oc3c2C[C@H]1O[C@@H]1O[C@H](CO)[C@@H](O)[C@H](O)[C@H]1O	1.4	> 100	> 100	–	21	–
CC(=O)O[C@@H]1[C@H](OC(=O)C(C)C)c2c(ccc3ccc(=O)oc23)OC1(C)C [SERAVSHANIN]	-2.2	> 100	4.2	–	–	–
C/C=C(\C)C(=O)O[C@@H]1c2c(ccc3ccc(=O)oc23)OC(C)(C)[C@@H]1OC(=O)/C(C)=C/C	2.8	> 100	3.4	–	–	–
CC1(C)Oc2ccc3ccc(=O)oc3c2[C@@H](O)[C@H]1O	6.5	> 100	91	–	–	–
CC(=O)O[C@@H]1[C@H](OC(=O)CC(C)C)c2c(ccc3ccc(=O)oc23)OC1(C)C [SUKSDORFIN]	-3.4	> 100	11	–	–	–
C/C=C(\C)C(=O)O[C@@H]1c2c(ccc3ccc(=O)oc23)OC(C)(C)[C@@H]1OC(C)=O [PTERYXIN]	4.4	> 100	20	–	–	–
C/C=C(\C)C(=O)O[C@@H]1[C@H](OC(C)=O)c2c(ccc3ccc(=O)oc23)OC1(C)C	13	> 100	8.8	–	–	–
C/C=C(\C)C(=O)O[C@@H]1[C@H](OC(=O)C(C)C)c2c(ccc3ccc(=O)oc23)OC1(C)C	10	> 100	8.8	–	–	–
C=C[C@@H](O)C#CC#CC/C=C\CCCCCCC	-0.6	> 100	4.8	–	–	–
O=c1ccc2ccc(O[C@@H]3O[C@H](COC4OC[C@](O)(CO)[C@H]4O)[C@@H](O)[C@H](O)[C@H]3O)cc2o1 (stereo partly drawn)	-2.1	> 100	> 100	–	36	–
CC(=O)O[C@@H]1c2c(ccc3ccc(=O)oc23)OC(C)(C)[C@@H]1OC(=O)C1(C)OC1C (stereo partly drawn)	–	29	53	–	–	–
CC1(C)Oc2ccc3ccc(=O)oc3c2[C@H](O)[C@H]1O	1.5	> 100	> 100	–	–	36
